Experimental data reported in patent US20150045313A1, “Ectoparasiticidal Methods and Formulations” (Eli Lilly and Company, priority 2009, published 2015).

How the values were obtained:
[1] = system: ticks (Amblyomma americanum); assay: Surrogate Animal bioassay, topical exposure on rats; type: in vivo; settings: formulated in ethanol, 48 h
Procedure: Surrogate Animal bioassay/ticks(Amblyomma americanum) and fleas:
Topical exposure—Test materials are formulated in ethanol or acetone at the desired testing concentrations, typically 6% active ingredient or lower. Either doubling or log-dilutions are performed in ethanol to obtain additional testing concentrations (3.0, 0.3, 0.03, and 0.003 mg/cm^3). A tick containment unit is affixed to the back or adult male or female rats, and 0.05 ml of formulated test material is applied topically to the surface area inside of the containment unit. Materials are allowed to dry overnight, after which time 10 unfed dog tick nymphs are placed into each containment unit. A total of 5 rats are normally used for each test concentration. Ticks are allowed to attach and feed on treated animals for 48 h, after which time containment units are opened and live/dead ticks are enumerated. Rats may be co-infested with adult cat fleas at the time of tick infestation to obtain data for topical insecticide activity using the same animal.

Cat Flea = assay: Flea Contact Assay (FCA)
Procedure: Flea Contact Assay (FCA)/Cat Flea: Test material is formulated in acetone at the desired exposure concentration and doubling dilutions performed to obtain a total of 10 testing levels. Approximately 0.05 ml of formulated material is dispensed into the bottom of a test tube containing a small amount of dog hair. Acetone is allowed to evaporate under a fume hood overnight. Approximately 10 mixed-sex adult cat flea are anesthetized using carbon dioxide and dispensed into each tube. Tubes are sealed using a ventilated plastic cap and incubated at 27° C. and 75-80% relative humidity. […] Nonlinear regression is used to model dose-mortality relationship and obtain relative potency (LD50) data compared to contemporaneous controls (acetone-only or fipronil).

[2] = system: Horn Fly (Haematobia irritans); assay: Cattle Ectoparasiticide Test, pour-on or spray against horn flies; type: in vivo
Source text: (§1) Cattle Ectoparasiticide Test (CET)/Horn Fly (Haematobia irritans) and/or Adult Tick (Amblyomma americanum): Cattle are housed in environmentally controlled rooms, 1 or 2 animals per room that have screened doors and ventilation system to prevent fly escape. Following treatment application, a defined number of horn flies are released into each room (typically at or above economic threshold of 200 flies per animal). After defined periods of time, the numbers of live horn flies remaining on animals are enumerated. If a combination horn fly and tick experiment is conducted, adult lone star ticks are placed into surgical stockinette enclosures that are glued onto the backs of cattle. Cattle are restrained in a modified head gate within environmentally controlled rooms. Horn flies may be enumerated, followed by determination of the numbers of dead ticks inside of containment units. Typically there are 2 containment units per animal and at least 2 animals per treatment group.
B) Therapeutic and residual efficacy testing of spinetoram and Elector against horn flies when applied topically to cattle as a pour-on or topical spray. Spinetoram (120 g/L), Elector (25 g/L spinosad) as described previously were used. Test material was applied to animals as either a whole-body topical spray or neat pour-on. Spinetoram was diluted in water to 25 g/L prior to application as a pour-on. Both materials were diluted in water to 0.04% (400 ppm) for application as a whole-body spray in a total volume of 1 L per animal. There were a total of six animals per treatment group (n=6) plus six negative control animals. Beef and dairy cattle were used. Following treatments, horn flies were released into rooms harboring cattle. Live flies were enumerated 24 h following challenges.

Lone Star Tick = assay: Larval Packet Test (LPT)
Procedure: Larval Packet Test (LPT)/Ticks: Test material is formulated in a 2:1 ratio of trichloroethylene: olive oil. Tissue biopsy bags are saturated with 1 ml of formulated material (n=3 per test level), and bags are allowed to dry under a fume hood for at least 2 hours. Approximately 50-100 larval-stage ticks are placed into each bag, and the bag is sealed using a plastic dialysis clip and incubated for 24 h at 27° C. and 95% relative humidity. Bags are then opened, and live/dead ticks are enumerated. Nonlinear regression is used to model dose-mortality relationship and obtain relative potency (LD50) data compared to contemporaneous controls (solvent-only or fipronil).

House Fly = assay: Adult House Fly Assay (AhsF); parameters: species or system Musca domestica; settings: House Fly, 24 h
Procedure: Adult Stable or House Fly Assay (ASF, AhsF). This assay is conducted essentially as described in White, W. H., S. M. Bauer, X. Zhao et al., Comparison of in vitro and in vivo ectoparasiticide activity of an experimental benzimidazole-carbamate with permethrin and amitraz, J. Med. Entomol. 42, 207-211 (2005); and White, W. H., C. M. McCoy, J. A. Meyer et al., Knockdown and mortality comparisons among spinosad-, imidacloprid-, and methomyl-containing baits against susceptible Musca domestica (Diptera: Muscidae) under laboratory conditions, J. Econ. Entomol. 100, 155-163 (2007).
Test material is formulated in DMSO at 10 mM. Doubling dilutions in like solvent are made to yield 10 testing levels. Materials are diluted in either bovine serum (stable flies) or 5% glucose solution (house flies) to obtain desired exposure concentrations from 200-0.39 μM. Approximately 3 ml of diluted test material is placed into a test tube (n=3 per test level) and a dental wick is used to absorb fluid. One dental wick is placed into a small weigh boat inside of a 100 mm Petri dish. Approximately 10 mixed-sex adult flies are anesthetized using carbon dioxide and counted into each dish. Dishes are incubated at 27° C. and 50-70% relative humidity. Flies recover from anesthesia and feed on compound-soaked dental wicks. After 24 h, live/dead flies are enumerated. Nonlinear regression is used to model dose-mortality relationship and obtain relative potency (LD50) data compared to contemporaneous controls (solvent-only or permethrin).

[3] = system: Lone Star Tick (Amblyomma americanum); assay: Cattle Ectoparasiticide Test, single dose whole-body spray against lone star tick; type: in vivo
Source text: as §1
A) Single Dose Efficacy Testing and Comparison of Spinetoram with Elector against Lone Star Tick (Amblyomma americanum) Infestations on Cattle. Technical spinetoram was formulated as a 25 g/L suspension concentrate using the same formulatin components as found in Elector. Test material was applied to animals as a whole-body topical spray. Total of two animals per treatment group; each animal harbored ticks inside of 3 containment units (n=3 per animal or n=6 per treatment group). Concentrates (25 g/L) diluted in water; treatment level equivalent to marketed rate for Elector (0.5 g AI per animal).

Question: For Spinetoram, which “topical activity against tick nymphs compared to spinosad” value [1] is on record?
Answer: Its value is “equivalent to that of spinosad”.

Question: What about the “Potency (EC50 ng/cm^2) 24 h” value (Cat Flea; Cat Flea, 24 h) of the same substance?
Answer: Its value is 1.292 ng/cm^2.

Question: And the “Spinetoram: Spinosad Potency Ratio 24 h” value (Cat Flea; Cat Flea, 24 h)?
Answer: Its value is 2.4.

Question: And the “Potency (EC50 ng/cm^2) 48 h” value (Cat Flea; Cat Flea, 48 h)?
Answer: The value was 0.6238 ng/cm^2.

Question: What about the “Spinetoram: Spinosad Potency Ratio 48 h” value (Cat Flea; Cat Flea, 48 h) of the same substance?
Answer: Its value is 2.4.

Question: What about the “times more potent than spinosad in vitro” value (Cat Flea; adult cat fleas, time not stated) of the same substance?
Answer: Its value is 2.4 times.

Question: What about the “GM percent horn fly reduction after 24 hrs, Pour-on” value ([2]; cattle, pour-on 2 mg/kg, Initial) of the same substance?
Answer: Its value is 100%.

Question: What about the “GM percent horn fly reduction after 24 hrs, Spray” value ([2]; cattle, whole-body spray 0.04% AI, Initial) of the same substance?
Answer: The value was 99.9%.

Question: And the “therapeutic efficacy compared with Elector” value ([2]; horn fly infested cattle, pour-on (2 mg/kg) or whole-body spray (0.04% AI))?
Answer: The value was “equivalent therapeutic efficacy”.

Question: What about the “Spinetoram/Spinosad Potency Ratio” value (Lone Star Tick; Lone Star Tick) of the same substance?
Answer: The value was 0.4.

Question: And the “Potency (EC50)” value (Lone Star Tick; Lone Star Tick larvae, 24 h)?
Answer: Its value is 531.6 ppm.

Question: And the “Spinetoram: Spinosad Potency Ratio” value (House Fly)?
Answer: The value was 5.5.

Question: And the EC50 (House Fly; read-out: Potency (24 h EC50 μM))?
Answer: Its EC50 is 2.18 µM.

Question: And the “percent tick reduction, 2 hr” value ([3]; cattle, whole-body spray 0.5 g AI per animal, Day 1, 2 hr)?
Answer: Its value is 0%.

Question: And the “percent tick reduction, 6 hr” value ([3]; cattle, whole-body spray 0.5 g AI per animal, Day 1, 6 hr)?
Answer: The value was 0%.

Question: What about the “percent tick reduction, 10 hr” value ([3]; cattle, whole-body spray 0.5 g AI per animal, Day 1, 10 hr) of the same substance?
Answer: The value was 0%.

Question: What about the “percent tick reduction, 24 hr” value ([3]; cattle, whole-body spray 0.5 g AI per animal, Day 2, 24 hr) of the same substance?
Answer: Its value is 0%.

Question: And the “percent tick reduction, 48 hr” value ([3]; cattle, whole-body spray 0.5 g AI per animal, Day 3, 48 hr)?
Answer: Its value is 8.14%.

Question: And the “percent tick reduction, 72 hr” value ([3]; cattle, whole-body spray 0.5 g AI per animal, Day 4, 72 hr)?
Answer: Its value is 8.14%.

Question: What about the “percent tick reduction, 144 hr” value ([3]; cattle, whole-body spray 0.5 g AI per animal, Day 7, 144 hr) of the same substance?
Answer: Its value is 46.67%.

Question: And the “ET50” value ([3]; speed of kill, adult lone star ticks on cattle, 0.5 g AI per animal)?
Answer: Its value is 148.2 h.

Question: What about the “activity (potency and speed of kill) compared to Elector” value ([3]; topically to cattle at 0.5 g/animal) of the same substance?
Answer: The value was “equivalent activity”.
